Molecular target: T1, human Werner helicase (WRN-BV08, Uniprot Q14191, amino acids 517-1235 with L1074F point mutation) (Homo sapiens, UniProt Q14191, L1074F)
T1 construct: Uniprot Q14191, amino acids 517-1235 with L1074F point mutation; TEV-cleavable 8×His (C, cleaved yes); made in house; host or cells: Sf9 insect cells (baculovirus)
Assay: WRN (BV08) ADP-Glo Assay
Assay type: biochemical
Conditions: 0.15 nM WRN, 5 μM ATP, 0.1 nM DNA duplex, 15 min preincubation, 60 min at 25° C., pH 7.5, 1% DMSO; read-out: ADP-Glo_hWRN_IC50
Summary of the method: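 ADP-Glo luminescence read-out of ATP hydrolysis. Conditions: 0.15 nM WRN, 5 μM ATP, 0.1 nM DNA duplex, 1% DMSO, 60 min at 25 °C after 15 min compound preincubation. Max/min controls were DMSO and 20 μM NSC-617145; IC50 from four-parameter fit.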

T1 sequence (Q14191 with tags, fused parts or gaps L1074F limits assumed): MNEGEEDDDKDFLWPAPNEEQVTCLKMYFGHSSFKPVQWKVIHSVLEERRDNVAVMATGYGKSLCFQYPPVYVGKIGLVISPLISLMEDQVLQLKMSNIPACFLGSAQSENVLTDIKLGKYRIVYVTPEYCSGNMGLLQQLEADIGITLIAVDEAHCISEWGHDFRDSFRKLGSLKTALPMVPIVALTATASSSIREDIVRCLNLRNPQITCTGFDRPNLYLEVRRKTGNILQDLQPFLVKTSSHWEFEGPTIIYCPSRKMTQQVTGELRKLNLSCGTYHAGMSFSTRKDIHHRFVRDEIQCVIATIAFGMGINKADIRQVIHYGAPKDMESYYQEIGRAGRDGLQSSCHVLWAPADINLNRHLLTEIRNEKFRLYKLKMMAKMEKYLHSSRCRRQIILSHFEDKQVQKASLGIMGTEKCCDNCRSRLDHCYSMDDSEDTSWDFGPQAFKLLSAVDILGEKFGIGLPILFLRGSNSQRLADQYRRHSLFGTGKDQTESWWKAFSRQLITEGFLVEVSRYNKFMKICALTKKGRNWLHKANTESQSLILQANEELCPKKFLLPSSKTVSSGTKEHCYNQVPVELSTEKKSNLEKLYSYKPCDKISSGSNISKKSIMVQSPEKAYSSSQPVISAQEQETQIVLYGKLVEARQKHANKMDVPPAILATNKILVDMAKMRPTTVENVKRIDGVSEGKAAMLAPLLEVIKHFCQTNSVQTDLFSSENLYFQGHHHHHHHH

Structure (SMILES) | IC50 [µM]
O=C(Cc1ccc(-c2ccsc2)cc1)N(Cc1ccncc1)C1C=CS(=O)(=O)C1 (stereo not drawn) [I-248, N-(1,1-dioxo-2,3-dihydro-1lambda6-thiophen-3-yl)-N-[(pyridin-4-yl)methyl]-2-[4-(thiophen-3-yl)phenyl]acetamide] | 5 to 10
O=C(Cc1ccc(-n2cccc2)cc1)N(Cc1cc(F)cc(F)c1)C1C=CS(=O)(=O)C1 (stereo not drawn) [I-522, N-[(3,5-difluorophenyl)methyl]-N-(1,1-dioxo-2,3-dihydro-1lambda6-thiophen-3-yl)-2-[4-(1H-pyrrol-1-yl)phenyl]acetamide] | > 50
CC(F)(F)c1ccc(CC(=O)N(Cc2ccncc2)C2C=CS(=O)(=O)C2)cc1 (stereo not drawn) [I-191, 2-[4-(1,1-difluoroethyl)phenyl]-N-(1,1-dioxo-2,3-dihydro-1lambda6-thiophen-3-yl)-N-[(pyridin-4-yl)methyl]acetamide] | 0.5 to 5
Cc1cccn1-c1ccc(CC(=O)N(Cc2ccnc(OCC(F)(F)F)c2)C2C=CS(=O)(=O)C2)c(F)c1 (stereo not drawn) [I-67, N-(1,1-dioxo-2,3-dihydro-1lambda6-thiophen-3-yl)-2-[2-fluoro-4-(2-methyl-1H-pyrrol-1-yl)phenyl]-N-{[2-(2,2,2-trifluoroethoxy)pyridin-4-yl]methyl}acetamide] | < 0.5
O=C(Cn1nnc2ccccc21)N(Cc1ccncc1)C1C=CS(=O)(=O)C1 (stereo not drawn) [I-492, 2-(1H-1,2,3-benzotriazol-1-yl)-N-(1,1-dioxo-2,3-dihydro-1lambda6-thiophen-3-yl)-N-[(pyridin-4-yl)methyl]acetamide] | > 50
COc1cc(CN(C(=O)Cc2ccc(-n3ccc(F)cc3=O)cc2F)C2C=CS(=O)(=O)C2)ccn1 (stereo not drawn) [I-453, N-(1,1-dioxo-2,3-dihydro-1lambda6-thiophen-3-yl)-2-[2-fluoro-4-(4-fluoro-2-oxo-1,2-dihydropyridin-1-yl)phenyl]-N-[(2-methoxypyridin-4-yl)methyl]acetamide] | > 50
O=C(Cc1ccc(-c2cccs2)cc1)N(Cc1ccncc1)C1C=CS(=O)(=O)C1 (stereo not drawn) [I-338, N-(1,1-dioxo-2,3-dihydro-1lambda6-thiophen-3-yl)-N-[(pyridin-4-yl)methyl]-2-[4-(thiophen-2-yl)phenyl]acetamide] | 10 to 50
COc1ccc(-c2ccc(CC(=O)N(Cc3ccncc3)C3C=CS(=O)(=O)C3)cc2)cc1 (stereo not drawn) [I-555, N-(1,1-dioxo-2,3-dihydro-1lambda6-thiophen-3-yl)-2-{4′-methoxy-[1,1′-biphenyl]-4-yl}-N-[(pyridin-4-yl)methyl]acetamide] | > 50
CC(C)(O)c1cc(CN(C(=O)Cc2ccc(-n3cccc3)cc2F)C2C=CS(=O)(=O)C2)ccn1 (single isomer, unassigned) [I-40] | < 0.5
CC(C(=O)N(Cc1ccncc1)C1C=CS(=O)(=O)C1)c1ccc(-c2ccc(F)cc2)cc1 (stereo not drawn) [I-266, N-(1,1-dioxo-2,3-dihydro-1lambda6-thiophen-3-yl)-2-{4′-fluoro-[1,1′-biphenyl]-4-yl}-N-[(pyridin-4-yl)methyl]propanamide] | 5 to 10
COc1cc(CN(C(=O)Cc2c(F)cc(-n3cccc3C)cc2F)C2C=CS(=O)(=O)C2)ccn1 (stereo not drawn) [I-241, 2-[2,6-difluoro-4-(2-methyl-1H-pyrrol-1-yl)phenyl]-N-(1,1-dioxo-2,3-dihydro-1lambda6-thiophen-3-yl)-N-[(2-methoxypyridin-4-yl)methyl]acetamide] | 5 to 10
CC(C)Cc1ccc(CC(=O)N(Cc2ccncc2)C2C=CS(=O)(=O)C2)cc1 (stereo not drawn) [I-283, N-(1,1-dioxo-2,3-dihydro-1lambda6-thiophen-3-yl)-2-[4-(2-methylpropyl)phenyl]-N-[(pyridin-4-yl)methyl]acetamide] | 10 to 50
COc1cc(CN(C(=O)C(OC)c2ccc(-c3ccc(F)cc3)cc2F)C2C=CS(=O)(=O)C2)ccn1 (stereo not drawn) [I-71, 2-{3,4′-difluoro-[1,1′-biphenyl]-4-yl}-N-(1,1-dioxo-2,3-dihydro-1lambda6-thiophen-3-yl)-2-methoxy-N-[(2-methoxypyridin-4-yl)methyl]acetamide] | < 0.5
O=C(Cn1cc(-c2ccc(F)c(F)c2)cn1)N(Cc1nc(C2CC2)cs1)C1C=CS(=O)(=O)C1 (single isomer, unassigned) [I-5, N-((4-cyclopropylthiazol-2-yl)methyl)-2-(4-(3,4-difluorophenyl)-1H-pyrazol-1-yl)-N-(1,1-dioxido-2,3-dihydrothiophen-3-yl)acetamide] | < 0.5
O=C(/C=C/c1ccccc1)N(Cc1ccncc1)C1C=CS(=O)(=O)C1 (stereo not drawn) [I-530, (2E)-N-(1,1-dioxo-2,3-dihydro-1lambda6-thiophen-3-yl)-3-phenyl-N-[(pyridin-4-yl)methyl]prop-2-enamide] | > 50
CC(C)(O)c1cc(CN(C(=O)Cn2cc(-c3ccc(F)cc3)cn2)C2C=CS(=O)(=O)C2)ccn1 (stereo not drawn) [I-42, N-(1,1-dioxo-2,3-dihydro-1lambda6-thiophen-3-yl)-2-[4-(4-fluorophenyl)-1H-pyrazol-1-yl]-N-{[2-(2-hydroxypropan-2-yl)pyridin-4-yl]methyl}acetamide] | < 0.5
CC(C)(O)c1cc(CN(C(=O)Cc2ccc(-n3cccc3)cc2F)C2C=CS(=O)(=O)C2)ccn1 (stereo not drawn) [I-61, N-(1,1-dioxo-2,3-dihydro-1lambda6-thiophen-3-yl)-2-[2-fluoro-4-(1H-pyrrol-1-yl)phenyl]-N-{[2-(2-hydroxypropan-2-yl)pyridin-4-yl]methyl}acetamide] | < 0.5
O=C(Cc1ccc(OC(F)(F)F)cc1)N(Cc1ccncc1)C1C=CS(=O)(=O)C1 (stereo not drawn) [I-252, N-(1,1-dioxo-2,3-dihydro-1lambda6-thiophen-3-yl)-N-[(pyridin-4-yl)methyl]-2-[4-(trifluoromethoxy)phenyl]acetamide] | 5 to 10

The next lines start with the values.

IC50 [µM] | Structure (SMILES)
< 0.5 | CC(C(=O)N(Cc1ccnc(C(C)(C)O)c1)C1C=CS(=O)(=O)C1)n1cc(-c2cc(F)c(F)c(F)c2)cn1 (single isomer, unassigned) [I-777, (2R*)-N-[(3R**)-1,1-dioxo-2,3-dihydro-1lambda6-thiophen-3-yl]-N-{[2-(2-hydroxypropan-2-yl)pyridin-4-yl]methyl}-2-[4-(3,4,5-trifluorophenyl)-1H-pyrazol-1-yl]propanamide]
> 50 | COCc1cccn1-c1ccc(CC(=O)N(Cc2ccccc2)C2C=CS(=O)(=O)C2)cc1 (stereo not drawn) [I-568, N-benzyl-N-(1,1-dioxo-2,3-dihydro-1lambda6-thiophen-3-yl)-2-{4-[2-(methoxymethyl)-1H-pyrrol-1-yl]phenyl}acetamide]
> 50 | O=C([C@@H]1[C@@H]2CC[C@@]1(c1cccc(Br)c1)C2)N(Cc1ccncc1)C1C=CS(=O)(=O)C1 (mixture of isomers) [I-755, rac-(1R,4R,5R)-1-(3-bromophenyl)-N-(1,1-dioxo-2,3-dihydro-1lambda6-thiophen-3-yl)-N-[(pyridin-4-yl)methyl]bicyclo[2.1.1]hexane-5-carboxamide]
0.5 to 5 | COc1cc(C(C)N(C(=O)Cn2cc(-c3cc(F)c(F)c(F)c3)cn2)C2C=CS(=O)(=O)C2)ccn1 (single isomer, unassigned) [I-831, N-[(3R**)-1,1-dioxo-2,3-dihydro-1lambda6-thiophen-3-yl]-N-[(1R*)-1-(2-methoxypyridin-4-yl)ethyl]-2-[4-(3,4,5-trifluorophenyl)-1H-pyrazol-1-yl]acetamide]
< 0.5 | COc1cc([C@H](C)N(C(=O)Cn2cc(-c3cc(F)c(F)c(F)c3)cn2)[C@@H]2C=CS(=O)(=O)C2)ccn1 [I-829, N-[(3R)-1,1-dioxo-2,3-dihydro-1lambda6-thiophen-3-yl]-N-[(1S)-1-(2-methoxypyridin-4-yl)ethyl]-2-[4-(3,4,5-trifluorophenyl)-1H-pyrazol-1-yl]acetamide]
0.5 to 5 | CC(C)(O)c1cc(CN(C(=O)Cc2ncc(-c3cc(F)c(F)c(F)c3)s2)C2C=CS(=O)(=O)C2)ccn1 (single isomer, unassigned) [I-794]
0.5 to 5 | COc1cc(CN(C(=O)C(OC2COC2)c2ccc(-c3ccc(F)c(F)c3)cc2F)[C@@H]2C=CS(=O)(=O)C2)ccn1 (single isomer, unassigned) [I-740, (2R*)-N-[(3R)-1,1-dioxo-2,3-dihydro-1lambda6-thiophen-3-yl]-N-[(2-methoxypyridin-4-yl)methyl]-2-(oxetan-3-yloxy)-2-{3,3′,4′-trifluoro-[1,1′-biphenyl]-4-yl}acetamide]
< 0.5 | COc1cc(CN(C(=O)C(c2ccc(-c3ccc(F)c(F)c3)cc2F)n2cc(OC(F)F)cn2)[C@@H]2C=CS(=O)(=O)C2)ccn1 (single isomer, unassigned) [I-685, (2R*)-2-[4-(difluoromethoxy)-1H-pyrazol-1-yl]-N-[(3R)-1,1-dioxo-2,3-dihydro-1lambda6-thiophen-3-yl]-N-[(2-methoxypyridin-4-yl)methyl]-2-{3,3′,4′-trifluoro-[1,1′-biphenyl]-4-yl}acetamide]
> 50 | O=C(C1CCC2(CCC2)CO1)N(Cc1ccncc1)C1C=CS(=O)(=O)C1 (stereo not drawn) [I-654, N-(1,1-dioxo-2,3-dihydro-1lambda6-thiophen-3-yl)-N-[(pyridin-4-yl)methyl]-6-oxaspiro[3.5]nonane-7-carboxamide]
> 50 | CC(=O)NCC(C(=O)N(Cc1ccncc1)C1C=CS(=O)(=O)C1)c1ccc(-c2ccc(F)cc2)cc1 (stereo not drawn) [I-563, N-(1,1-dioxo-2,3-dihydro-1lambda6-thiophen-3-yl)-3-acetamido-2-{4′-fluoro-[1,1′-biphenyl]-4-yl}-N-[(pyridin-4-yl)methyl]propanamide]
< 0.5 | CC(C)(O)c1cc(CN(C(=O)Cn2cc(-c3ccc(C(F)F)cc3)cn2)C2C=CS(=O)(=O)C2)ccn1 (single isomer, unassigned) [I-639]
< 0.5 | CC(C)(O)c1cc(CN(C(=O)Cn2cc(-c3cc(F)c(F)cc3F)cn2)C2C=CS(=O)(=O)C2)ccn1 (single isomer, unassigned) [I-763]

— patent publication US20260297070A1, “CYCLIC [COMPOUND LEFT OUT] WRN INHIBITORS” (Nimbus Wadjet, Inc., priority 2023, published 2026)
